The text below walks through data of patent US20100120690A1, “Polypeptides Having Antimicrobial Activity and Polynucleotides Encoding Same” (Novozymes Adenium Biotech A/S, priority 2005, published 2010).

The assay concerns Staphylococcus carnosus ATCC51365. Kind of assay: Yeast screening assay: radial diffusion assay of yeast supernatants. It is filed as cell-based. On the set-up: key: An activity of 3 is better than Plectasin; An activity of 2 corresponds to the activity of Plectasin; 1 is worse than Plectasin. The following applies: yeast supernatant, clearing zone in radial diffusion assay. The method, then: A range of antimicrobial polypeptides, which are variants of SEQ ID NO: 1 (Plectasin), were tested for antimicrobial activity by expressing them in S. cerevisae and screening the supernatant of the yeast transformants for antimicrobial activity against Staphylococcus carnosus ATCC51365.
Radial Diffusion Assay was carried out as described in Methods in Molecular Biology, Vol. 78, Antibacterial peptide protocol, William M. Shafer, Human Press.
200-300 yeast transformant colonies were plated on 14 cm round plates containing 25 mL SC growth medium supplemented with 1.5% galactose, 0.5% glucose and 1.5% agarose. Plates were incubated for three hours at room temperature, overlaid with 25 mL of the same growth medium and allowed to grow for three days at 30° C. Then the plates were overlaid with 25 mL of LB growth medium containing 1.5% agarose and 10^5 cells of the indicator strain Staphylococcus carnosus and incubated at 30° C. overnight to allow growth of the bacterial cells. Next day, the plates were stained with 1.5 mM MTT to facilitate visualization of the clearing zones.
Yeast colonies creating clearing zones were transferred to microtiter plates containing 200 micro-L of SC growth medium supplemented with 2% glucose and ampicillin (100 mg/L). Such plates designated “master plates” were incubated for 2 days at 30° C. with shaking at 450 rpm to allow yeast growth.
10 micro-L SC growth medium from each well of the master plates were transferred to new microtiter plates containing 200 micro-L SC growth medium with 1.5% galactose and 0.5% glucose. These plates were called daughter plates and were incubated for 3 days at 30° C. under 450 rpm shaking to allow yeast growth and peptide synthesis.
Finally a Radial Diffusion Assay (RDA) was performed following the protocol described in Methods in Molecular Biology to analyse and quantify the antimicrobial activity of the yeast supernatants against S. carnosus.
Briefly, 30 mL of minimal underlay medium containing 1% agarose and 5×10^5 cfu/mL of S. carnosus was poured in an omnitray plate (Nunc, 242811). A Nunc TSP plate (#445497) was inserted immediately on the plate to allow a 96 well pattern formation. Once the media had solidified, the TSP plate was removed and 10 micro-L of yeast supernatant samples were applied on the holes. Plates were incubated 3 hours at 37° C. and overlaid with 15 mL of LB agar growth medium. Finally, plates were incubated overnight at 37° C. and coloured with 1.5 mM MTT to visualize the clearing zones.
Inspection and measurements of the clearing zones was performed on the plates. The corresponding yeast clones resulting in clearing zones of similar or increased size than the clones encoding for wild type plectasin were picked from the master plates and transferred to agar plates containing SC growth medium with 2% glucose and ampicillin (100 mg/L). Such plates were incubated for further 2 days at 30° C. to allow yeast growth. Subsequently, colony PCR was performed followed by sequence analysis to identify amino acid changes in the plectasin sequence.
An activity of 2 corresponds to the activity of Plectasin. An activity of 3 is better than Plectasin, and 1 is worse than Plectasin.
For the sequence “GFGCNGPWDEDDMQCHNHCKSIKGYKGGYCAKGGFRCKCY [Mutation V36R]”, the “Activity (antimicrobial activity relative to the activity of plectasin)” value was determined as 2.
With “GFGCNGPWDEDDMQCHNHCKSIKGYKGGYCAKGGFTCKCY [Mutation V36T]” the figure was 3; with “GFGCNGPWDEDDMQCHNHCKSIKGYKGGYCAKGGFVCHCY [Mutation K38H]”, 2; with “GFGCNGPWDEDDMQCHNHCKSIKGYKGGYCAKGGFVCKCI [Mutation Y40I]”, 2.
As for “GFGCNGPWDEDDMQCHNHCKSIKGYKGGYCAKGGFVCNCY [Mutation K38N]”, the “Activity (antimicrobial activity relative to the activity of plectasin)” value turned out to be 2.
For “GFGCNGPWDEDDMQCHNHCKSIKGYKGGYCAKGGFVCRCY [Mutation K38R]” the value was 2.
In the case of “GFGCNGPWDEDDMQCHNHCKSIKGYKGGYCAKGGHVCKCY [Mutation F35H]”, the “Activity (antimicrobial activity relative to the activity of plectasin)” value is 2.
On to “GFGCNGPWDEDDMQCHNHCKSIKGYKGGYCAKGGIVCKCY [Mutation F35I]”, for which the “Activity (antimicrobial activity relative to the activity of plectasin)” value is on record as 2.
With “GFGCNGPWDEDDMQCHNHCKSIKGYKGGYCAKGGLVCKCY [Mutation F35L]” the figure was 3; with “GFGCNGPWDEDDMQCHNHCKSIKGYKGGYCAKGGMVCKCY [Mutation F35M]”, 2.
For “GFGCNGPWDEDDMQCHNHCKSIKGYKGGYCAKGGVVCKCY [Mutation F35V]” the value was 2.
As to “GFGCNGPWDEDDMQCHNHCKSIKGYKGGYCAKGGWVCKCY [Mutation F35W]”, the “Activity (antimicrobial activity relative to the activity of plectasin)” value was determined as 2.
For “GFGCNGPWDEDDMQCHNHCKSIKGYKGGYCAKGHFVCKCY [Mutation G34H]”, the “Activity (antimicrobial activity relative to the activity of plectasin)” value is reported as 2.
For “GFGCNGPWDEDDMQCHNHCKSIKGYKGGYCAKGKFVCKCY [Mutation G34K]” the value was 3; for “GFGCNGPWDEDDMQCHNHCKSIKGYKGGYCAKGRFVCKCY [Mutation G34R]”, 3.
With “GFGCNGPWDEDDMQCHNHCKSIKGYKGGYCAKGWFVCKCY [Mutation G34W]” the figure was 2; with “GFGCNGPWDEDDMQCHNHCKSIKGYKGGYCAKKGFVCKCY [Mutation G33K]”, 3.
With “GFGCNGPWDEDDMQCHNHCKSIKGYKGGYCAKNGFVCKCY [Mutation G33N]”, the “Activity (antimicrobial activity relative to the activity of plectasin)” value is on record as 2.
For “GFGCNGPWDEDDMQCHNHCKSIKGYKGGYCAKQGFVCKCY [Mutation G33Q]” the value was 3; for “GFGCNGPWDEDDMQCHNHCKSIKGYKGGYCAKRGFVCKCY [Mutation G33R]”, 3.
“GFGCNGPWDEDDMQCHNHCKSIKGYKGGYCAKSGFVCKCY [Mutation G33S]”: the “Activity (antimicrobial activity relative to the activity of plectasin)” value turned out to be 2.
With “GFGCNGPWDEDDMQCHNHCKSIKGYKGGYCAKTGFVCKCY [Mutation G33T]” the figure was 2; with “GFGCNGPWDEDDMQCHNHCKSIKGYKGGYCARGGFVCKCY [Mutation K32R]”, 2; with “GFGCNGPWDEDDMQCHNHCKSIKGYKGGYCARGKFVCKCY [K32R + G34K]”, 2.
On to “GFGCNGPWDEDDMQCHNHCKSIKGYKGGYCATGGFVCKCY [Mutation K32T]”, for which the “Activity (antimicrobial activity relative to the activity of plectasin)” value is listed as 2.
For “GFGCNGPWDEDDMQCHNHCKSIKGYKGGYCEKGGFVCKCY [Mutation A31E]” the value was 2; for “GFGCNGPWDEDDMQCHNHCKSIKGYKGGYCHKGGFVCKCY [Mutation A31H]”, 2.
In the case of “GFGCNGPWDEDDMQCHNHCKSIKGYKGGYCIKGGFVCKCY [Mutation A31I]”, the “Activity (antimicrobial activity relative to the activity of plectasin)” value turned out to be 2.
On to “GFGCNGPWDEDDMQCHNHCKSIKGYKGGYCKKGGFVCKCY [Mutation A31K]”, for which the “Activity (antimicrobial activity relative to the activity of plectasin)” value stood at 3.
With “GFGCNGPWDEDDMQCHNHCKSIKGYKGGYCQKGGFVCKCY [Mutation A31Q]” the figure was 3; with “GFGCNGPWDEDDMQCHNHCKSIKGYKGGYCRKGGFVCKCY [Mutation A31R]”, 2; with “GFGCNGPWDEDDMQCHNHCKSIKGYKGGYCSKGGFVCKCY [Mutation A31S]”, 2.
For “GFGCNGPWDEDDMQCHNHCKSIKGYKGGYCTKGGFVCKCY [Mutation A31T]” the value was 3; for “GFGCNGPWDEDDMQCHNHCKSIKGYKGGYCVKGGFVCKCY [Mutation A31V]”, 2.
In the case of “GFGCNGPWDEDDMQCHNHCKSIKGYKGGYCYKGGFVCKCY [Mutation A31Y]”, the “Activity (antimicrobial activity relative to the activity of plectasin)” value is reported as 3.
For “GFGCNGPWDEDDMQCHNHCKSIKGYTGGYCAKGGFVCKCY [Mutation K26T]” the value was 2; for “GFGCNGPWDEDDMQCHNHCKSIKHYKGGYCAKGGFVCKCY [Mutation G24H]”, 3.
With “GFGCNGPWDEDDMQCHNHCKSIKIYKGGYCAKGGFVCKCY [Mutation G24I]” the figure was 2; with “GFGCNGPWDEDDMQCHNHCKSIKKYKGGYCAKGGFVCKCY [Mutation G24K]”, 3; with “GFGCNGPWDEDDMQCHNHCKSIKNYKGGYCAKGGFVCKCY [Mutation G24N]”, 3.
With “GFGCNGPWDEDDMQCHNHCKSIKPYKGGYCAKGGFVCKCY [Mutation G24P]” the figure was 2; with “GFGCNGPWDEDDMQCHNHCKSIKQYKGGYCAKGGFVCKCY [Mutation G24Q]”, 2.
Take “GFGCNGPWDEDDMQCHNHCKSIKSYKGGYCAKGGFVCKCY [Mutation G24S]”: the “Activity (antimicrobial activity relative to the activity of plectasin)” value was 2.
With “GFGCNGPWDEDDMQCHNHCKSIKTYKGGYCAKGGFVCKCY [Mutation G24T]” the figure was 2; with “GFGCNGPWDEDDMQCHNHCKSIKYYKGGYCAKGGFVCKCY [Mutation G24Y]”, 2; with “GFGCNGPWDEDDMQCHNHCKSLKGYKGGYCAKGGFVCKCY [Mutation I22L]”, 3.
For “GFGCNGPWDEDDMQCHNHCKSMKGYKGGYCAKGGFVCKCY [Mutation I22M]” the value was 2; for “GFGCNGPWDEDDMQCHNHCKSTKGYKGGYCAKGGFVCKCY [Mutation I22T]”, 2; for “GFGCNGPWDEDDMQCHNHCKSVKGYKGGYCAKGGFVCKCY [Mutation I22V]”, 3.
In the case of “GFGCNGPWDEDDMQCHNHCKSWKGYKGGYCAKGGFVCKCY [Mutation I22W]”, the “Activity (antimicrobial activity relative to the activity of plectasin)” value was 2.
For the sequence “GFGCNGPWDEDDMQCHNHCQSIKGYKGGYCAKGGFVCKCY [Mutation K20Q]”, the “Activity (antimicrobial activity relative to the activity of plectasin)” value is on record as 2.
As for “GFGCNGPWDEDDMQCHNLCKSIKGYKGGYCAKGGFVCKCY [Mutation H18L]”, the “Activity (antimicrobial activity relative to the activity of plectasin)” value is 3.
With “GFGCNGPWDEDDMQCHNQCKSIKGYKGGYCAKGGFVCKCY [Mutation H18Q]” the figure was 2; with “GFGCNGPWDEDDMQCHNTCKSIKGYKGGYCAKGGFVCKCY [Mutation H18T]”, 2; with “GFGCNGPWDEDDMQCHNVCKSIKGYKGGYCAKGGFVCKCY [Mutation H18V]”, 2.
